{
  "source": "patent US20030212138A1",
  "about": "“Combinations of peroxisome proliferator-activated receptor-alpha agonists and cyclooxygenase-2 selective inhibitors and therapeutic uses therefor” (Pharmacia Corporation, priority 2002, published 2003)",
  "origin": "cited, not measured here",
  "tested_on": "fibroblast growth factor-induced corneal angiogenesis",
  "conditions": "rats; Masferrer et al. 1999",
  "data": [
    {"smiles": "Cc1ccc(-c2cc(C(F)(F)F)nn2-c2ccc(S(N)(=O)=O)cc2)cc1", "note": "[Celecoxib®, 4-[5-(4-methylphenyl)-3-(trifluoromethyl)-1H-pyrazol-1-yl]benzenesulfonamide]", "values": [
      {"measurement": "inhibition of fibroblast growth factor-induced corneal angiogenesis", "value": "potent inhibition"}
    ]}
  ]
}
